Test results reported in patent publication US20230131899A1, “INHIBITORS OF MICROBIALLY INDUCED AMYLOID” (Axial Therapeutics, Inc., priority 2020, published 2023).
Read-outs that look alike come from different tables or passages of the source.

Tested on: CsgA gene expression (csgBAC promoter-GFP reporter) in E. coli UTI89
Test: In vitro live cell fluorescent reporter assay of CsgA transcription (Reporter Assay)
Assay type: cell-based
Conditions: Escherichia coli
In short: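 Chromosomal single-copy csgBAC promoter–GFP reporter in E. coli UTI89, started at OD600 0.003 in YESCA broth with compound (0.14–100 μM, 1% DMSO), 20 h at 27 °C. GFP (ex 485/em 525 nm) background-subtracted and normalized to vehicle; IC50 and X[50] from curve fits. OD600 tracked growth effects.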

[1] = read-out: Reporter Assay Abs IC50 (μM), median Abs IC50 in the CsgA reporter assay, N/A = maximum expression reduction is <50% of control
[2] = read-out: Reporter Assay Abs IC50, activity range, class symbol
[3] = read-out: Reporter Assay Abs IC50 (activity range), median Abs IC50 in the CsgA reporter assay, class symbol

Row | Structure (SMILES) | IC50 [1] [µM] | IC50 [2] [µM] | IC50 [3] [µM]
1 | N#Cc1cccc(CN2CC(C(=O)O)n3c2c(-c2cccc(C(F)(F)F)c2)c(Cc2cccc4ccccc24)c(Cl)c3=O)c1 (centres unmarked) [Compound 168, 6-chloro-1-(3-cyanobenzyl)-7-(naphthalen-1-ylmethyl)-5-oxo-8-(3-(trifluoromethyl)phenyl)-1,2,3,5-tetrahydroimidazo[1,2-a]pyridine-3-carboxylic acid] | 1.3 | 1.3 to 4.5 | 
2 | O=C(O)C1CN(CC2CCCCC2)c2c(-c3cccc(C(F)(F)F)c3)c(Cc3cccc4ccccc34)c(Cl)c(=O)n21 (centres unmarked) [Compound 180, 6-chloro-1-(cyclohexylmethyl)-7-(naphthalen-1-ylmethyl)-5-oxo-8-(3-(trifluoromethyl)phenyl)-1,2,3,5-tetrahydroimidazo[1,2-a]pyridine-3-carboxylic acid] | 0.5 | < 1.3 | 
3 | O=C(O)C1CSc2c(-c3cccc(C(F)(F)F)c3)c(C(F)(F)c3cccc4ccccc34)cc(=O)n21 (centres unmarked) [Compound 073, 7-(difluoro(naphthalen-1-yl)methyl)-5-oxo-8-(3-(trifluoromethyl)phenyl)-2,3-dihydro-5H-thiazolo[3,2-a]pyridine-3-carboxylic acid] | 6 |  | 4.6 to 10
4 | CCCN1CC(C(=O)O)n2c(c(-c3cccc(C(F)(F)F)c3)c(Cc3cccc4ccccc34)c(O)c2=O)S1(=O)=O (centres unmarked) [Compound 141, 7-hydroxy-8-(naphthalen-1-ylmethyl)-6-oxo-2-propyl-9-(3-(trifluoromethyl)phenyl)-3,4-dihydro-2H,6H-pyrido[1,2-e][1,2,5]thiadiazine-4-carboxylic acid 1,1-dioxide] | 2.7 | 1.3 to 4.5 | 
5 | O=C(O)C1CSc2c(-c3cccc(C(F)(F)F)c3)c(Cc3cccc4ccccc34)cc(=S)n21 (centres unmarked) [Compound 054, 7-(naphthalen-1-ylmethyl)-5-thioxo-8-(3-(trifluoromethyl)phenyl)-2,3-dihydro-5H-thiazolo[3,2-a]pyridine-3-carboxylic acid] | 6.3 |  | 4.6 to 10
6 | CCCN1CC(C(=O)O)n2c(c(-c3cccc(C(F)(F)F)c3)c(Cc3cccc4ccccc34)c(OCC)c2=O)S1(=O)=O (centres unmarked) [Compound 143, 7-ethoxy-8-(naphthalen-1-ylmethyl)-6-oxo-2-propyl-9-(3-(trifluoromethyl)phenyl)-3,4-dihydro-2H,6H-pyrido[1,2-e][1,2,5]thiadiazine-4-carboxylic acid 1,1-dioxide] | 5.2 | 4.6 to 10 | 
7 | NC(=O)c1c(Cc2cccc3ccccc23)c(-c2cccc(C(F)(F)F)c2)c2n(c1=O)C(C(=O)O)CN(CCCO)S2(=O)=O (centres unmarked) [Compound 184, 7-carbamoyl-2-(3-hydroxypropyl)-8-(naphthalen-1-ylmethyl)-6-oxo-9-(3-(trifluoromethyl)phenyl)-3,4-dihydro-2H,6H-pyrido[1,2-e][1,2,5]thiadiazine-4-carboxylic acid 1,1-dioxide] | 2.7 | 1.3 to 4.5 | 
8 | O=C(O)C1CN(Cc2ccc(CO)cc2)c2c(-c3cccc(C(F)(F)F)c3)c(Cc3cccc4ccccc34)c(Cl)c(=O)n21 (centres unmarked) [Compound 170, 6-chloro-1-(4-(hydroxymethyl)benzyl)-7-(naphthalen-1-ylmethyl)-5-oxo-8-(3-(trifluoromethyl)phenyl)-1,2,3,5-tetrahydroimidazo[1,2-a]pyridine-3-carboxylic acid] | 2.2 | 1.3 to 4.5 | 
9 | NC(=O)c1c(Cc2cccc3ccccc23)c(-c2cccc(C(F)(F)F)c2)c2n(c1=O)C(C(=O)O)CN(C1CCCC1)S2(=O)=O (centres unmarked) [Compound 176, 7-carbamoyl-2-cyclopentyl-8-(naphthalen-1-ylmethyl)-6-oxo-9-(3-(trifluoromethyl)phenyl)-3,4-dihydro-2H,6H-pyrido[1,2-e][1,2,5]thiadiazine-4-carboxylic acid 1,1-dioxide] | 1.3 | 1.3 to 4.5 | 
10 | O=C(O)[C@@H]1CN(Cc2ccccc2)c2c(-c3cccc(C(F)(F)F)c3)c(Cc3cccc4ccccc34)c(Cl)c(=O)n21 (single isomer, unassigned) [Compound 004a] | 0.2 | < 1.3 | 
